According to patent US6737383B1, “Herbicidal oxadiazolidines” (priority 1999, dated 2004):

How the values were obtained:
[1] = system: pigweed; assay: Test B pre/postemergence pigweed; assay type: in vivo, Amaranthus retroflexus
How it was run: (§1)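 Herbicidal effect was estimated by eye on a ten-point control scale after plants spent twelve to sixteen days in a greenhouse following soil or foliar treatment. Foliar sprays targeted plants at one to four leaves; all doses were formulated in a non-phytotoxic solvent with surfactant.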

[2] = system: smallflower flatsedge; assay: Test B flood test smallflower flatsedge; assay type: in vivo, Cyperus difformis
How it was run: (§2)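 Read-out is a visual response score from 0 (no effect) to 10 (complete control), assigned by comparison with untreated controls. Treatment was applied at the 2-leaf stage, and plants stayed in the greenhouse for twelve to sixteen days before scoring.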

[3] = system: bamyardgrass; assay: Test B flood test barnyardgrass; assay type: in vivo, Echinochloa crus-galli
How it was run: as §2

[4] = system: sugar beet; assay: Test B pre/postemergence sugar beet; assay type: in vivo, Beta vulgaris
How it was run: as §1

[5] = system: duck salad; assay: Test B flood test duck salad; assay type: in vivo, Heteranthera limosa
How it was run: as §2

[6] = system: cocklebur; assay: Test B pre/postemergence cocklebur; assay type: in vivo, Xanthium strumarium
How it was run: as §1

[7] = system: blackgrass; assay: Test B pre/postemergence blackgrass; assay type: in vivo, Alopecurus myosuroides
How it was run: as §1

[8] = system: soybean; assay: Test B pre/postemergence soybean; assay type: in vivo, Glycine max
How it was run: as §1

[9] = system: rice; assay: Test B flood test rice; assay type: in vivo, Oryza sativa
How it was run: as §2

[10] = system: surinam grass; assay: Test B pre/postemergence surinam grass; assay type: in vivo, Brachiaria decumbens
How it was run: as §1

[11] = system: purple nutsedge; assay: Test B pre/postemergence purple nutsedge; assay type: in vivo, Cyperus rotundus
How it was run: as §1

[12] = system: rape; assay: Test B pre/postemergence rape; assay type: in vivo, Brassica napus
How it was run: as §1

[13] = system: corn; assay: Test B pre/postemergence corn; assay type: in vivo, Zea mays
How it was run: as §1

[14] = system: giant foxtail; assay: Test B pre/postemergence giant foxtail; assay type: in vivo, Setaria faberii
How it was run: as §1

[15] = system: crabgrass; assay: Test B pre/postemergence crabgrass; assay type: in vivo, Digitaria sanguinalis
How it was run: as §1

[16] = system: wheat; assay: Test B pre/postemergence wheat; assay type: in vivo, Triticum aestivum
How it was run: as §1

[17] = Postemergence, Rate 125 g/ha, scale of 0 to 10 where 0 is no effect and 10 is complete control
[18] = Preemergence, Rate 62 g/ha, scale of 0 to 10 where 0 is no effect and 10 is complete control
[19] = Preemergence, Rate 125 g/ha, 0 is no effect, 10 is complete control
[20] = Preemergence, Rate 250 g/ha, scale 0 to 10, 0 is no effect, 10 is complete control
[21] = Preemergence, Rate 500 g/ha, scale 0 to 10 (0 no effect, 10 complete control)
[22] = Rate 62 g/ha, Postemergence, scale of 0 to 10 where 0 is no effect and 10 is complete control
[23] = Rate 250 g/ha, Postemergence, scale 0 to 10, 0 is no effect, 10 is complete control
[24] = Rate 500 g/ha, Postemergence, scale 0 to 10
[25] = Postemergence (flood test species), Rate 125 g/ha, scale of 0 to 10 where 0 is no effect and 10 is complete control
[26] = Rate 62 g/ha, Postemergence section, flood test species, scale of 0 to 10 where 0 is no effect and 10 is complete control
[27] = Rate 250 g/ha, Postemergence (flood test), scale 0 to 10, 0 is no effect, 10 is complete control
[28] = Rate 500 g/ha, listed under Postemergence (flood test species), scale 0 to 10

Cc1nsc(C)c1-n1c(=O)on(C(=O)N(c2ccc(Cl)cc2)C(C)C)c1=O [Compound 159]
Redroot pigweed plant response rating [1, 17]: 0
Redroot pigweed plant response rating [1, 18]: 0
Redroot pigweed plant response rating (0 to 10 scale) [1, 19]: 0
Redroot pigweed plant response rating [1, 20]: 0
Redroot pigweed plant response rating [1, 21]: 0
Redroot pigweed plant response rating [1, 22]: 0
Plant response rating, Redroot pigweed [1, 23]: 0
Redroot pigweed plant response rating [1, 24]: 0
S. Flatsedge plant response rating [2, 25]: 0
S. Flatsedge plant response rating [2, 26]: 0
Plant response rating, S. Flatsedge [2, 27]: 0
S. Flatsedge plant response rating [2, 28]: 0
Barnyardgrass plant response rating [3, 25]: 0
Barnyardgrass plant response rating [3, 26]: 0
Plant response rating, Barnyardgrass [3, 27]: 0
Barnyardgrass plant response rating [3, 28]: 0
Sugarbeets plant response rating [4, 17]: 0
Sugarbeets plant response rating [4, 18]: 0
Sugarbeets plant response rating (0 to 10 scale) [4, 19]: 0
Sugarbeets plant response rating [4, 20]: 0
Sugarbeets plant response rating [4, 21]: 0
Sugarbeets plant response rating [4, 22]: 0
Plant response rating, Sugarbeets [4, 23]: 0
Sugarbeets plant response rating [4, 24]: 0
Ducksalad plant response rating [5, 25]: 0
Ducksalad plant response rating [5, 26]: 0
Plant response rating, Ducksalad [5, 27]: 0
Ducksalad plant response rating [5, 28]: 0
Cocklebur plant response rating [6, 17]: 0
Cocklebur plant response rating [6, 18]: 0
Cocklebur plant response rating (0 to 10 scale) [6, 19]: 0
Cocklebur plant response rating [6, 20]: 0
Cocklebur plant response rating [6, 21]: 0
Cocklebur plant response rating [6, 22]: 0
Plant response rating, Cocklebur [6, 23]: 0
Cocklebur plant response rating [6, 24]: 0
Blackgrass plant response rating [7, 17]: 0
Blackgrass plant response rating [7, 18]: 0
Blackgrass plant response rating (0 to 10 scale) [7, 19]: 0
Blackgrass plant response rating [7, 20]: 0
Blackgrass plant response rating [7, 21]: 0
Blackgrass plant response rating [7, 22]: 0
Plant response rating, Blackgrass [7, 23]: 0
Blackgrass plant response rating [7, 24]: 0
Soybean plant response rating [8, 17]: 3
Soybean plant response rating [8, 18]: 0
Soybean plant response rating (0 to 10 scale) [8, 19]: 0
Soybean plant response rating [8, 20]: 0
Soybean plant response rating [8, 21]: 0
Soybean plant response rating [8, 22]: 0
Plant response rating, Soybean [8, 23]: 3
Soybean plant response rating [8, 24]: 3
Rice plant response rating [9, 25]: 0
Rice plant response rating [9, 26]: 0
Plant response rating, Rice [9, 27]: 0
Rice plant response rating [9, 28]: 0
B. signalgrass plant response rating [10, 17]: 0
B. signalgrass plant response rating [10, 18]: 0
B. signalgrass plant response rating (0 to 10 scale) [10, 19]: 0
B. signalgrass plant response rating [10, 20]: 0
B. signalgrass plant response rating [10, 21]: 0
B. signalgrass plant response rating [10, 22]: 0
Plant response rating, B. signalgrass [10, 23]: 0
B. signalgrass plant response rating ([10]; Rate 500 g/ha, Postemergence, scale 0 to 10, 0 no effect, 10 complete control): 0
Nutsedge plant response rating [11, 17]: 0
Nutsedge plant response rating [11, 18]: 0
Nutsedge plant response rating (0 to 10 scale) [11, 19]: 0
Nutsedge plant response rating [11, 20]: 0
Nutsedge plant response rating [11, 21]: 0
Nutsedge plant response rating [11, 22]: 0
Plant response rating, Nutsedge [11, 23]: 0
Nutsedge plant response rating [11, 24]: 0
Rape plant response rating [12, 17]: 0
Rape plant response rating [12, 18]: 0
Rape plant response rating (0 to 10 scale) [12, 19]: 0
Rape plant response rating [12, 20]: 0
Rape plant response rating [12, 21]: 0
Rape plant response rating [12, 22]: 0
Plant response rating, Rape [12, 23]: 0
Rape plant response rating [12, 24]: 0
Corn plant response rating [13, 17]: 0
Corn plant response rating [13, 18]: 0
Corn plant response rating (0 to 10 scale) [13, 19]: 0
Corn plant response rating [13, 20]: 0
Corn plant response rating [13, 21]: 0
Corn plant response rating [13, 22]: 0
Plant response rating, Corn [13, 23]: 0
Corn plant response rating [13, 24]: 0
Giant foxtail plant response rating [14, 17]: 0
Giant foxtail plant response rating [14, 18]: 0
Giant foxtail plant response rating (0 to 10 scale) [14, 19]: 0
Giant foxtail plant response rating [14, 20]: 0
Giant foxtail plant response rating [14, 21]: 0
Giant foxtail plant response rating [14, 22]: 0
Plant response rating, Giant foxtail [14, 23]: 0
Giant foxtail plant response rating [14, 24]: 0
Crabgrass plant response rating [15, 17]: 0
Crabgrass plant response rating [15, 18]: 0
Crabgrass plant response rating (0 to 10 scale) [15, 19]: 0
Crabgrass plant response rating [15, 20]: 0
Crabgrass plant response rating [15, 21]: 0
Crabgrass plant response rating [15, 22]: 0
Plant response rating, Crabgrass [15, 23]: 0
Crabgrass plant response rating [15, 24]: 0
Wheat plant response rating [16, 18]: 0
Wheat plant response rating (0 to 10 scale) [16, 19]: 0
Wheat plant response rating [16, 20]: 0
Wheat plant response rating [16, 21]: 0
Plant response rating, Wheat [16, 23]: 0
Wheat plant response rating [16, 24]: 0
